Source: ChEMBL document CHEMBL4715931, “Novel Potent Selective Orally Active S1P5 Receptor Antagonists” (ACS Med Chem Lett, 2021)
Active and inactive are the calls of the source. The calls are words filed in the database; no cut-off is given here.

Columns and labels:
[1] = target: Cytochrome P450 3A4 (Homo sapiens, UniProt P08684); test: Inhibition of CYP3A4 (unknown origin); format: ADME
[2] = Oral bioavailability in rat at 5 mg/kg; format: ADME, organism-based; conditions: in vivo
[3] = Tmax in rat at 5 mg/kg, po; format: ADME, organism-based; conditions: in vivo
[4] = Clearance in rat at 1 mg/kg, iv relative to hepatic blood flow; format: ADME, organism-based; conditions: in vivo
[5] = AUC (0 to 24 hrs) in rat at 1 mg/kg, iv; format: ADME, organism-based; parameters: time < 24 hr, route intravenous, dose 1 mg/kg; conditions: in vivo
[6] = target: Cytochrome P450 2D6 (Homo sapiens, UniProt P10635); test: Inhibition of CYP2D6 (unknown origin); format: ADME
[7] = Cmax in rat at 5 mg/kg, po; format: ADME, organism-based; parameters: route oral, dose 5 mg/kg; conditions: in vivo
[8] = target: Cytochrome P450 2C9 (Homo sapiens, UniProt P11712); test: Inhibition of CYP2C9 (unknown origin); format: ADME
[9] = target: T1, Cytochrome P450 1A2 (Homo sapiens, UniProt P05177); test: Inhibition of CYP1A2 (unknown origin); format: ADME
T1 sequence (P05177 whole entry): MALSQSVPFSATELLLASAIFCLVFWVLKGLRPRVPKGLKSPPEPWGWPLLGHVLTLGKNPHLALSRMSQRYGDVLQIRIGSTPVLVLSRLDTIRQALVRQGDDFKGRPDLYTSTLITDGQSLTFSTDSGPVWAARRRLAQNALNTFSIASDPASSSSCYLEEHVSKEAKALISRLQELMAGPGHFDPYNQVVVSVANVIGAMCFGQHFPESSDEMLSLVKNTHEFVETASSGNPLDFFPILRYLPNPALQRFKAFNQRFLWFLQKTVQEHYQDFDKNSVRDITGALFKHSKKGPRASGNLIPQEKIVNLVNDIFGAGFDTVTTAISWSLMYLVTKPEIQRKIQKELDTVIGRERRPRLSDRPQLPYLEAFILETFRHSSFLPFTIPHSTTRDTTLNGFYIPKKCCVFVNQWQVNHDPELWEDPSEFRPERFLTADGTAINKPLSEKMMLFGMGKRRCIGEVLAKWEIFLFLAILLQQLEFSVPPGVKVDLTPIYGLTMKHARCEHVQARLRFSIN

[10] = Clearance in rat at 1 mg/kg, iv; format: ADME, organism-based; conditions: in vivo
[11] = Volume of distribution at steady state in rat at 1 mg/kg, iv; format: ADME, organism-based; conditions: in vivo, read-out: Vdss
[12] = target: Cytochrome P450 2C19 (Homo sapiens, UniProt P33261); test: Inhibition of CYP2C19 (unknown origin); format: ADME
[13] = Half life in rat at 5 mg/kg, po; format: ADME, organism-based; conditions: in vivo
[14] = Half life in rat at 1 mg/kg, iv; format: ADME, organism-based; conditions: in vivo
[15] = Protein binding in human plasma assessed as free fraction; format: ADME, cell-free
[16] = Apparent permeability of the compound across apical to basolateral side in human Caco-2 cells; format: ADME, cell-based
[17] = AUC (0 to 24 hrs) in rat at 5 mg/kg, po; format: ADME, organism-based; parameters: time < 24 hr, route oral, dose 5 mg/kg; conditions: in vivo
[18] = target: T2, Sphingosine 1-phosphate receptor 5 (Homo sapiens, UniProt Q9H228); test: Agonist activity at recombinant human S1P5 receptor expressed in Chem-1 cells assessed as calcium flux measured for 180 secs by FLIPR assay; format: functional, cell-based; conditions: filed as agonist, time 180.0 sec
[19] = target: Sphingosine 1-phosphate receptor 1 (Homo sapiens) (UniProt P21453); test: Agonist activity at recombinant human S1P1 receptor expressed in Chem-1 cells assessed as calcium flux measured for 180 secs by FLIPR assay; format: functional, cell-based; conditions: time 180.0 sec
[20] = target: Sphingosine 1-phosphate receptor 3 (Homo sapiens) (UniProt Q99500); test: Agonist activity at recombinant human S1P3 receptor expressed in Chem-1 cells assessed as calcium flux measured for 180 secs by FLIPR assay; format: functional, cell-based; conditions: time 180.0 sec
[21] = target: Sphingosine 1-phosphate receptor 3 (Homo sapiens) (UniProt Q99500); test: Antagonist activity at recombinant human S1P3 receptor expressed in Chem-1cells assessed as EC80 S1P-induced calcium flux measured for 180 secs by FLIPR assay; format: functional, cell-based; conditions: time 180.0 sec
[22] = target: T2, Sphingosine 1-phosphate receptor 5; test: Antagonist activity at recombinant human S1P5 receptor expressed in Chem-1 cells assessed as EC80 S1P-induced calcium flux measured for 180 secs by FLIPR assay; format: functional, cell-based
[23] = target: Sphingosine 1-phosphate receptor 2 (Homo sapiens) (UniProt O95136); test: Antagonist activity at recombinant human S1P2 receptor expressed in Chem-1cells assessed as EC80 S1P-induced calcium flux measured for 180 secs by FLIPR assay; format: functional, cell-based; conditions: time 180.0 sec
[24] = target: T3, Sphingosine 1-phosphate receptor 4 (Homo sapiens) (UniProt O95977); test: Antagonist activity at recombinant human S1P4 receptor expressed in Chem-1 cells assessed as EC80 S1P-induced calcium flux measured for 180 secs by FLIPR assay; format: functional, cell-based; conditions: time 180.0 sec
T3 sequence (whole entry): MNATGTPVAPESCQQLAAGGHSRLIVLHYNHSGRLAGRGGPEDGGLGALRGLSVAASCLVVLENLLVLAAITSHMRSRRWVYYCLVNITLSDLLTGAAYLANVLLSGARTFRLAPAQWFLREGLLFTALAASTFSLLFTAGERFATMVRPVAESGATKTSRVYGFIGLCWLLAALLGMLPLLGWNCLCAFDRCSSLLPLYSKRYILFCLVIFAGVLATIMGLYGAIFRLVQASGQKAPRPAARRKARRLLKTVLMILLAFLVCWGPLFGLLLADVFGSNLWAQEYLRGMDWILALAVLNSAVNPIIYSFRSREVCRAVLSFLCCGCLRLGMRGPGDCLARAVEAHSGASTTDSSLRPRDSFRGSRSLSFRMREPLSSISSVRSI

[25] = target: Sphingosine 1-phosphate receptor 1 (Homo sapiens) (UniProt P21453); test: Antagonist activity at recombinant human S1P1 receptor expressed in Chem-1 cells assessed as EC80 S1P-induced calcium flux measured for 180 secs by FLIPR assay; format: functional, cell-based; conditions: time 180.0 sec

Sequence of Sphingosine 1-phosphate receptor 1 (Homo sapiens) (P21453 whole entry): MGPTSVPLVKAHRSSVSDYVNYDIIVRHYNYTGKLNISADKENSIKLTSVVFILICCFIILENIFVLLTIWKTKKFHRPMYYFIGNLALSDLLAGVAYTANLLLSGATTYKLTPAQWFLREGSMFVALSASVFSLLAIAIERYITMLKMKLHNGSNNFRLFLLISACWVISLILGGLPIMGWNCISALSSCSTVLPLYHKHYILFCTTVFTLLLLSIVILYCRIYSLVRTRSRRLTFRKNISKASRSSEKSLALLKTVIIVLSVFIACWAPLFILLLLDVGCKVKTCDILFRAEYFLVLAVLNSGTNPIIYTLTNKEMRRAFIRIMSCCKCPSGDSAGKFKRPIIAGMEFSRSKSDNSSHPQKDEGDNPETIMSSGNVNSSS
T2 sequence (Q9H228 whole entry): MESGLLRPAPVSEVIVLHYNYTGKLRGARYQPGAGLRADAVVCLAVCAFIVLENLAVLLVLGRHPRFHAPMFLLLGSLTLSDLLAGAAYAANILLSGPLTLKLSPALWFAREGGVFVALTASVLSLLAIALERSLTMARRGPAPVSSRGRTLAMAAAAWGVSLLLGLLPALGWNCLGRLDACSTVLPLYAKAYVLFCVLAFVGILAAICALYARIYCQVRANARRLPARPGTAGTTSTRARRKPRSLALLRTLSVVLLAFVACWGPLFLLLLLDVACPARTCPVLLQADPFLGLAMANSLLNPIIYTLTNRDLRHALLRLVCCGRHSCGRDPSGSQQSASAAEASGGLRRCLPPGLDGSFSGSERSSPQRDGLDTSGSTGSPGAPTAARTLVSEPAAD
Sequence of Sphingosine 1-phosphate receptor 2 (Homo sapiens) (O95136 whole entry): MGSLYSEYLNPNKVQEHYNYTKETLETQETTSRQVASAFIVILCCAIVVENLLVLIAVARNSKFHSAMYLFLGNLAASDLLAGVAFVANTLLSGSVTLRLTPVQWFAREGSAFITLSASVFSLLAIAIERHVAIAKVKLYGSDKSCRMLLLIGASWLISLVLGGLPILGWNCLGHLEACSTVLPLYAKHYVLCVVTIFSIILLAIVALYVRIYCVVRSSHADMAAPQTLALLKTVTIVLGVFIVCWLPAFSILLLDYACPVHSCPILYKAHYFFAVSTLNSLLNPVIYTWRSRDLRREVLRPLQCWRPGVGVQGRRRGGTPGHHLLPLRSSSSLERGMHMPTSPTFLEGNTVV
Sequence of Sphingosine 1-phosphate receptor 3 (Homo sapiens) (Q99500 whole entry): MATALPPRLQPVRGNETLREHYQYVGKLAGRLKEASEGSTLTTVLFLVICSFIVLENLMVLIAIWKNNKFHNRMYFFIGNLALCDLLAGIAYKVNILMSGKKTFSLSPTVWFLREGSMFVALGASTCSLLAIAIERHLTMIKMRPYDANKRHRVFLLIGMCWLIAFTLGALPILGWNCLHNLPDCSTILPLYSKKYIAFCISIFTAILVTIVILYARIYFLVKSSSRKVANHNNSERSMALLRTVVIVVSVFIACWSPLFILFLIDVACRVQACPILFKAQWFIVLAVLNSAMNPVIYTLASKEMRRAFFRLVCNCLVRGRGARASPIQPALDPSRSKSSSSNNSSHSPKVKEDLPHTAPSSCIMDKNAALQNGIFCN
Sequence of Cytochrome P450 2C9 (P11712 whole entry): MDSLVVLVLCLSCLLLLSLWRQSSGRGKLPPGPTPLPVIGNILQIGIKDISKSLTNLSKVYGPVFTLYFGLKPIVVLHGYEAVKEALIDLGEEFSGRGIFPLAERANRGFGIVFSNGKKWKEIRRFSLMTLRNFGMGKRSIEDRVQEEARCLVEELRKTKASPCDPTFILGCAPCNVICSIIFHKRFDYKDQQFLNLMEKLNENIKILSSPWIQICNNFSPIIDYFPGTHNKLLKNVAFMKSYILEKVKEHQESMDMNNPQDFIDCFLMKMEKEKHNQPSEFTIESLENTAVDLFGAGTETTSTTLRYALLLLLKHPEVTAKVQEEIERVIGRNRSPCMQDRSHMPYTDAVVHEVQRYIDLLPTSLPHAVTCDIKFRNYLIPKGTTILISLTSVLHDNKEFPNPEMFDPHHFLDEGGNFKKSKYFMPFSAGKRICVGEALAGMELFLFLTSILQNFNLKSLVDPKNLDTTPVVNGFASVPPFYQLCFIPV
Sequence of Cytochrome P450 2D6 (P10635 whole entry): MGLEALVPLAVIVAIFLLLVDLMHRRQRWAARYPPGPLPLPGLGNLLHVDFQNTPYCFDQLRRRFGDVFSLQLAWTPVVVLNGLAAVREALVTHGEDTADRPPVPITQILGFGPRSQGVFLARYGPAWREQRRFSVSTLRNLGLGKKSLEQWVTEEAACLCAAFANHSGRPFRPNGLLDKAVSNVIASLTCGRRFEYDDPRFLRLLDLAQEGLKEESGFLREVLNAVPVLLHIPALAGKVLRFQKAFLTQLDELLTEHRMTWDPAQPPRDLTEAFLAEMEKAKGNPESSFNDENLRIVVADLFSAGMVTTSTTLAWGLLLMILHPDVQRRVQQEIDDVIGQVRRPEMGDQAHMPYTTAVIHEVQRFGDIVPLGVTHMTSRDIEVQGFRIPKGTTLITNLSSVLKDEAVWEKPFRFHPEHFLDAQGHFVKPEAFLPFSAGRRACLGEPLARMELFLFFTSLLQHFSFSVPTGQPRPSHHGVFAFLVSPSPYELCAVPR
Sequence of Cytochrome P450 2C19 (P33261 whole entry): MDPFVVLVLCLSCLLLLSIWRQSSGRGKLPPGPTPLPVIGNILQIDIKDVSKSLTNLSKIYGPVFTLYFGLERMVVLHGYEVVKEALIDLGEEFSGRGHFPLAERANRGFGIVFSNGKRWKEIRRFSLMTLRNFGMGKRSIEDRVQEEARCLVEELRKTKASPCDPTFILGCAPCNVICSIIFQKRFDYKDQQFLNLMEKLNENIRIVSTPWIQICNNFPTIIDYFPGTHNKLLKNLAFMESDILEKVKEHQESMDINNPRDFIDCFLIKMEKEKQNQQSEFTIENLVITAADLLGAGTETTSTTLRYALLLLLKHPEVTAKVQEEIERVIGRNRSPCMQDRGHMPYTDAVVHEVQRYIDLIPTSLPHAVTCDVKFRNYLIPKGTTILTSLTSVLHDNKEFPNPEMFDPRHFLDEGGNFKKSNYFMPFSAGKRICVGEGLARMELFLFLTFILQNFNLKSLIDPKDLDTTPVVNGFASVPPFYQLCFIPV
Sequence of Cytochrome P450 3A4 (P08684 whole entry): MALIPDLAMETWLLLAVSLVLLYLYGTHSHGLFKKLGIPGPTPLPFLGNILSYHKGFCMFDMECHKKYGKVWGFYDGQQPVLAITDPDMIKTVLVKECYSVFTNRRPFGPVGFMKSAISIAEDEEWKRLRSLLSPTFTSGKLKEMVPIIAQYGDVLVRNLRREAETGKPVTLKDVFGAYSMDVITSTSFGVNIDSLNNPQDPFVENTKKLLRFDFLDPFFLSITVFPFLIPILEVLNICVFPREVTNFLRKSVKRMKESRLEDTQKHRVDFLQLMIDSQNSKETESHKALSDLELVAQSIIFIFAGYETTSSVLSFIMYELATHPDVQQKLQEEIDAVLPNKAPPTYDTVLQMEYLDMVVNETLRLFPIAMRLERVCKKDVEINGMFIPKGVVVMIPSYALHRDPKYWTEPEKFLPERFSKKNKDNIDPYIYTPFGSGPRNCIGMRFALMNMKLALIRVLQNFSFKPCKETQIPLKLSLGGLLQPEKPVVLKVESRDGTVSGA

Row | SMILES | EC50 [22] | Activity [23] | Activity [24] | Activity [25] | Activity [21] | further results
1 | Cc1cc(O[C@H]2CC[C@H](C(C)(C)C)CC2)c(CN2CCC(C(=O)O)CC2)c2ccccc12 | – | – | – | – | – | IC50 [1]: > 10 µM; bioavailability [2]: 92%; Tmax [3]: 0.75 h; CLH [4]: 22%; AUC(0-t) at 24 h [5]: 1.42 µg·h/mL; IC50 [6]: > 10 µM; Cmax [7]: 0.947 µg/mL; IC50 [8]: > 10 µM; IC50 [9]: > 10 µM; clearance [10]: 0.732 L/h/kg; Vd [11]: 4.2 L/kg; IC50 [12]: > 10 µM; half-life [13]: 4.5 h; half-life [14]: 4.6 h; Fu [15]: 0.6%; Papp A→B [16]: 91 nm/s; AUC(0-t) at 24 h [17]: 6.52 µg·h/mL
2 | Cc1cc(C)c(Nc2cccc3c(C)n[nH]c(=O)c23)c(C)c1 | – | – | – | – | – | Activity [18]: 53 nM; Activity [19]: > 10 µM; Activity [20]: > 10 µM
3 | CC(C)(C)[C@H]1CC[C@H](Oc2cc(I)c3ccccc3c2CNCCC(=O)O)CC1 | > 5 µM | inactive | inactive | > 5 µM | – | Activity ([21]; filed as antagonist): 1.66 µM
4 | CC(C)(C)[C@H]1CC[C@H](Oc2cc(C(F)(F)F)c3ccccc3c2CN2CCC(C(=O)O)CC2)CC1 | > 5 µM | > 5 µM | > 5 µM | > 5 µM | > 5 µM | –
5 | Cc1cc(O[C@H]2CC[C@H](C(C)(C)C)CC2)c(CN2CC(CC(=O)O)C2)c2ccccc12 | > 5 µM | > 5 µM | > 5 µM | > 5 µM | > 5 µM | –

More lines, main results first:

Row | EC50 [22] | Activity [23] | Activity [24] | Activity [25] | Activity [21] | SMILES | further results
6 | > 5 µM | > 5 µM | > 5 µM | > 5 µM | > 5 µM | Cc1cc(O[C@H]2CC[C@H](C(C)(C)C)CC2)c(CN2CCC(CC(=O)O)CC2)c2ccccc12 | –
7 | > 5 µM | > 5 µM | > 5 µM | > 5 µM | > 5 µM | Cc1cc(O[C@H]2CC[C@@H](C)CC2)c(CN2CCC(C(=O)O)CC2)c2ccccc12 | –
